According to US20170066759A1, “AROMATIC 5-MEMBERED HETEROCYCLIC DERIVATIVE HAVING TRPV4-INHIBITING ACTIVITY” (Shionogi & Co., Ltd., priority 2012, published 2017):

Assays:
[1] = tested on: Salmonella typhimurium TA98 strain, TA100 strain; test: Test Example 7: FAT test (mutagenicity); design: key: (−) means that mutagenicity is negative; (+) is positive; conditions: TA98 and TA100 strains, non-metabolism activating and metabolism activating conditions
Procedure: Mutagenicity of a compound of the present invention was evaluated.
[…] of freezing-stored rat typhoid bacillus (Salmonella typhimurium TA98 strain, TA100 strain) was inoculated on 10 mL of a liquid nutrient medium (2.5% Oxoid nutrient broth No. 2), and this was cultured before shaking at 37° C. for 10 hours. 9 mL of a bacterial solution of the TA98 strain was centrifuged (2000×g, 10 minutes) to remove a culturing solution. The bacteria was suspended in 9 mL of a Micro F buffer (K2HPO4: 3.5 g/L, KH2PO4: 1 g/L, (NH4)2SO4: 1 g/L, trisodium citrate dehydrate: 0.25 g/L, MgSO4*7H2O: 0.1 g/L), the suspension was added to 110 mL of an Exposure medium (Micro F buffer containing Biotin: 8 μg/mL, histidine: 0.2 μg/mL, glucose: 8 mg/mL). The TA100 strain was added to 120 mL of the Exposure medium relative to 3.16 mL of the bacterial solution to prepare a test bacterial solution. […] Since a well containing a bacterium which has obtained the proliferation ability by mutation of an amino acid (histidine) synthesizing enzyme gene turns from purple to yellow due to a pH change, the bacterium proliferation well which has turned to yellow in 48 wells per dose was counted, and was assessed by comparing with a negative control group. […]

[2] = Test Example 11: BA test (oral absorbability); assay type: in vivo; conditions: plasma; Mouse, oral administration 1 mg/kg
Procedure: Materials and methods for experiments to evaluate oral absorbability
(1) Experimental animals: rats or mice were used. (2) Breeding condition: rats or mice were allowed free access to solid feed and sterilized tap water (3) Setting of dosage and grouping: Oral administration and intravenous administration were performed with the predetermined dosage. Grouping was set as below. (Dosage varied depending on each compound)
Oral administration 1 to 30 mg/kg (n=2 to 3)
Intravenous administration 0.5 to 10 mg/kg (n=2 to 3)
(4) Preparation of administered liquid: Oral administration was performed using a solution or a suspension. Intravenous administration was performed after solubilization. (5) Method of Administration: In oral administration, compulsory administration to the stomach was conducted using an oral sonde. […] (6) Evaluation items: Blood was chronologically collected, and then concentration of a compound of the present invention in blood plasma was measured using a LC/MS/MS. […]
(7) Statistical analysis: With regard to a shift in plasma concentration of the compound of the present invention, the area under the plasma concentration-time curve (AUC) was calculated using a nonlinear least-squares program, WinNonlin (a registered trademark). Bioavailability (BA) was calculated from the AUCs of the oral administration group and the intravenous administration group. […]

[3] = target: T1, human TRPV4 (hTRPV4/CHO cells) (Homo sapiens, UniProt Q9HBA0); test: Test Example 1: TRPV4 inhibitory activity (IC50 value), 4α-PDD stimulation, Fluo4 calcium fluorescence (FLIPR TETRA); assay type: cell-based; conditions: Test Example 1, 4α-PDD stimulation, read-out: Test 1 IC50
T1 construct: expressed in transfected cells; host or cells: CHO-K1

[4] = target: T2, CYP3A4 enzyme expressed in Escherichia coli (Homo sapiens, UniProt P08684); test: Test Example 5: CYP3A4 fluorescent MBI test; assay type: in vitro ADME; conditions: substrate 7-BFC, pre-reaction 30 minutes, compound 0.625-20 μmol/L
T2 construct: host or cells: Escherichia coli
Procedure: CYP3A4 Fluorescent MBI Test
The CYP3A4 fluorescent MBI test is a test of investigating enhancement of CYP3A4 inhibition of a compound of the present invention by a metabolism reaction, and the test was performed using, as CYP3A4 enzyme expressed in Esherichia coli and employing, as an index, a reaction in which 7-benzyloxytrifluoromethylchmarin (7-BFC) is debenzylated by the CYP3A4 enzyme to produce a metabolite, 7-hydroxytrifluoromethylchmarin (HFC) emitting fluorescent light.
The reaction conditions were as follows: substrate, 5.6 μmol/L 7-BFC; pre-reaction time, […] or 30 minutes; reaction time, 15 minutes; reaction temperature, 25° C. […]
An enzyme in a K-Pi buffer (pH 7.4) and a solution of the compound of the present invention as a pre-reaction solution were added to a 96-well plate at the above composition of the pre-reaction. […] For the plate on which each index reaction had been performed, a fluorescent value of 7-HFC which is a metabolite was measured with a fluorescent plate reader. […]
Addition of only DMSO which is a solvent dissolving the compound of the present invention to a reaction system was adopted as a control (100%). Remaining activity (%) was calculated at each concentration of the compound of the present invention added as the solution, and IC50 was calculated by reverse-presumption by a logistic model using a concentration and an inhibition rate. […]

T1 sequence (Q9HBA0 whole entry): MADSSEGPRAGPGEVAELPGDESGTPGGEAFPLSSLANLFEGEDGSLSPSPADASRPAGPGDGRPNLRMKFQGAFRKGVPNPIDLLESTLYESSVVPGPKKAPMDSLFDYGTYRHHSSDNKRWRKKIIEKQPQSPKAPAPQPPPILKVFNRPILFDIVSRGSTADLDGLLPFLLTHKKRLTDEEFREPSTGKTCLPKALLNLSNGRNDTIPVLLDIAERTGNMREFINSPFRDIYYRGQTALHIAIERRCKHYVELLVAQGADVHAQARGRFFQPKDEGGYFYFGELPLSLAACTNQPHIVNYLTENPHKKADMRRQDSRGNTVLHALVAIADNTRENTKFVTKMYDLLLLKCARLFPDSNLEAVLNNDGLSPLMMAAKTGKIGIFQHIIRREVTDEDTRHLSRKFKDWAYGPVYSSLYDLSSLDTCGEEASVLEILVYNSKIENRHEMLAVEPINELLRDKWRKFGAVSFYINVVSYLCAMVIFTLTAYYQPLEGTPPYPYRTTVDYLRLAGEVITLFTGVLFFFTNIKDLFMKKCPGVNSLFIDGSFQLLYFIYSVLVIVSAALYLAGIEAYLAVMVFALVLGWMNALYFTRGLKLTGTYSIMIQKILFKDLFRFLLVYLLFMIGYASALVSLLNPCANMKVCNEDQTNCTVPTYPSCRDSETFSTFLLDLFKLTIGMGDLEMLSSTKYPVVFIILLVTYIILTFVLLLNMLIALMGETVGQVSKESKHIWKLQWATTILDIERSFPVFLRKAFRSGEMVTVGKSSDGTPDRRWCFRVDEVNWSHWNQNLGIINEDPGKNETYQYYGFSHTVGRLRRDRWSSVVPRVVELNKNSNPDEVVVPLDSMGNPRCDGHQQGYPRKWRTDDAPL
T2 sequence (P08684 whole entry): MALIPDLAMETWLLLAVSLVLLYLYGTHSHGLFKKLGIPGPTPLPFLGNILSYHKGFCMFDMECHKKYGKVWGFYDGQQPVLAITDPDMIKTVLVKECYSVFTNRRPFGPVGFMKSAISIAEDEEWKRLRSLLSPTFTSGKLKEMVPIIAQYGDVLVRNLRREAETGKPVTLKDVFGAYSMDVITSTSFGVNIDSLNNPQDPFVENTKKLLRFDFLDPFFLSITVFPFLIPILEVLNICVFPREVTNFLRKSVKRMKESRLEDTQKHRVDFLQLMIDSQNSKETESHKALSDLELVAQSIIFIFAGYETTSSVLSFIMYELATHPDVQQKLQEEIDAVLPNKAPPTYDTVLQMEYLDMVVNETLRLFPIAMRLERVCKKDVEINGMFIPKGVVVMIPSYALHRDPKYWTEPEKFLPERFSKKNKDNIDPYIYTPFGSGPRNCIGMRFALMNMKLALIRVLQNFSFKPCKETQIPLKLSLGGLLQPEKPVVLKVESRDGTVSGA

Compound: Cc1nc(CO)sc1-c1csc(NC(=O)Cn2cc(Cl)cn2)n1 [Compound I-131]
- Mutagenicity (FAT test) [1]: (−)
- bioavailability [2]: 61.4%
- IC50 [3]: 100 to 1000 nM
- CYP3A4 fluorescent MBI test: difference between IC50 values without and with preincubation [4]: (−) (when the difference is 3 μM or less, this was defined as (−))
